Target: T1, OleTKM (Kocuria marina, UniProt A0A0B0D9P4)
T1 sequence (A0A0B0D9P4 1-428): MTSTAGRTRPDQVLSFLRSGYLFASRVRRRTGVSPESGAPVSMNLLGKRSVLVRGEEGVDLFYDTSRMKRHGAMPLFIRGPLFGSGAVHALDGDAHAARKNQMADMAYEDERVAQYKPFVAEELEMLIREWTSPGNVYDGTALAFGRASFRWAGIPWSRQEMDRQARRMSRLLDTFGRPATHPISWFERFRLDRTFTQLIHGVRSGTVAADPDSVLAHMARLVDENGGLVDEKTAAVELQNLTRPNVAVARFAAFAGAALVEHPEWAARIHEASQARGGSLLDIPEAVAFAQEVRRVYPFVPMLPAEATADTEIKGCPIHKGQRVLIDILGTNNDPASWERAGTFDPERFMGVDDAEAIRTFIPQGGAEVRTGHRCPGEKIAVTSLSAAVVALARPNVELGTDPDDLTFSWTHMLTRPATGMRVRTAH
Assay: inhibition of myristic acid turnover
Assay type: biochemical
Conditions: even mixture of C14:0 and C18:1; competitive

## CCCCCCCC/C=C\CCCCCCCC(=O)O [oleic acid]
  inhibition of myristic acid turnover: presence of oleic acid impaired the activity of OleTKM against myristic acid (Fig. 1d)
